Assay results taken from article PMC3609710 (Journal of chromatography. A, 2012).
Read-outs that look alike come from different tables or passages of the source.

Assay type: in vivo, mouse (C57Bl/6)
Settings: mouse serum, single IP injection of T1AM 25 mg/kg

| Compound | serum concentration (10 minutes post-injection) | serum concentration (20 minutes post-injection) | greatest serum concentration (at 6 hours post-injection) |
| --- | --- | --- | --- |
| O=C(O)Cc1ccc(Oc2ccc(O)cc2)c(I)c1 [TA1, 3-iodothyroacetic acid] | 17.7 ± 4.6 µM | 23.5 ± 13.2 µM | – |
| NCCc1ccc(Oc2ccc(O)cc2)c(I)c1 [T1AM, 3-Iodothyronamine] | 16.6 ± 8.5 µM | 5.6 ± 3.1 µM | – |
| O=C(O)Cc1ccc(Oc2ccc(O)cc2)cc1 [TA0, thyroacetic acid] | – | – | 0.77 ± 0.16 µM |
